Test results from PubChem BioAssay AID248 (DTP/NCI, 2004).
Toxic doses and inconclusive results are not listed. Cut-off read from the data, not from the text of the source: active = T/C of 150% or more; inactive = T/C below 125%.

Test system: L1210 leukemia ip in BDF1 mice, survival T/C
Test: NCI In Vivo Anticancer Drug Screen. Data for tumor model L1210 Leukemia (intraperitoneal) in B6D2F1 (BDF1) mice
Settings: endpoint: mean survival time, higher = longer survival
How it was run: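 Ratio derived from survival: compound-dosed mice over vehicle-dosed mice, all bearing a transplantable tumor.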

[1] = dose: 100.0 mg/kg/injection, schedule: Q01DX009 (ip), vehicle: saline
[2] = dose: 200.0 mg/kg/injection, schedule: Q01DX009 (ip), vehicle: saline
[3] = dose: 100.0 mg/kg/injection, schedule: Q01DX001 (ip), vehicle: carboxymethylcellulose (CMC)
[4] = dose: 200.0 mg/kg/injection, schedule: Q01DX001 (ip), vehicle: carboxymethylcellulose (CMC)
[5] = dose: 400.0 mg/kg/injection, schedule: Q01DX001 (ip), vehicle: carboxymethylcellulose (CMC)
[6] = dose: 100.0 mg/kg/injection, schedule: Q01DX001 (ip), vehicle: saline with Tween-80
[7] = dose: 100.0 mg/kg/injection, schedule: Q01DX009 (ip), vehicle: Klucel (hydroxypropylcellulose) (HPC)
[8] = dose: 400.0 mg/kg/injection, schedule: Q01DX009 (ip), vehicle: Klucel (hydroxypropylcellulose) (HPC)
[9] = dose: 100.0 mg/kg/injection, schedule: Q04DX003 (ip), vehicle: Klucel (hydroxypropylcellulose) (HPC)
[10] = dose: 200.0 mg/kg/injection, schedule: Q04DX003 (ip), vehicle: Klucel (hydroxypropylcellulose) (HPC)
[11] = dose: 400.0 mg/kg/injection, schedule: Q04DX003 (ip), vehicle: Klucel (hydroxypropylcellulose) (HPC)
[12] = dose: 200.0 mg/kg/injection, schedule: Q01DX009 (ip), vehicle: Klucel (hydroxypropylcellulose) (HPC)
[13] = dose: 100.0 mg/kg/injection, schedule: Q04DX003 (ip), vehicle: saline with Tween-80
[14] = dose: 200.0 mg/kg/injection, schedule: Q04DX003 (ip), vehicle: saline with Tween-80
[15] = dose: 100.0 mg/kg/injection, schedule: Q04DX002 (ip), vehicle: Klucel (hydroxypropylcellulose) (HPC)
[16] = dose: 400.0 mg/kg/injection, schedule: Q04DX002 (ip), vehicle: Klucel (hydroxypropylcellulose) (HPC)
[17] = dose: 200.0 mg/kg/injection, schedule: Q01DX009 (ip), vehicle: saline with Tween-80
[18] = dose: 50.0 mg/kg/injection, schedule: Q01DX009 (ip), vehicle: Klucel (hydroxypropylcellulose) (HPC)

Measured: T/C

ClCCOCCOc1ccc(C2CCCCC2)cc1
inactive: [1] 106 % of control | [2] 97 % of control | dose: 400.0 mg/kg/injection, schedule: Q01DX009 (ip), vehicle: saline 90 % of control

CCC/C(=C/c1cc2ccccc2c2ccccc12)[N+](=O)[O-]
inactive: [3] 97 % of control | [4] 111 % of control | [5] 106 % of control

O=C(Nc1ccc(Cl)c(Cl)c1)Nc1ccc(Oc2ccc(Cl)cc2Cl)cc1S(=O)(=O)O
inactive: dose: 100.0 mg/kg/injection, schedule: Q04DX003 (ip), vehicle: alcohol 100 % of control | dose: 200.0 mg/kg/injection, schedule: Q04DX003 (ip), vehicle: alcohol 103 % of control

Cn1cnc([N+](=O)[O-])c1SC#N
inactive: dose: 15.0 mg/kg/injection, schedule: Q01DX001 (ip), vehicle: carboxymethylcellulose (CMC) 100 % of control

COc1ccc2c(c1)C13CCCC(C)(C(=O)NC1)C3CC2 (stereo not given)
inactive: [3] 93 % of control | [4] 95 % of control | [5] 101 % of control

O=C(O)c1ccc(CCCCc2ccccc2)cc1
inactive: dose: 25.0 mg/kg/injection, schedule: Q01DX001 (ip), vehicle: saline with Tween-80 103 % of control | dose: 50.0 mg/kg/injection, schedule: Q01DX001 (ip), vehicle: saline with Tween-80 121 % of control | [6] 107 % of control

Nc1cnnc(N)c1Cl
inactive: dose: 5.0 mg/kg/injection, schedule: Q01DX001 (ip), vehicle: saline 102 % of control | dose: 10.0 mg/kg/injection, schedule: Q01DX001 (ip), vehicle: saline 113 % of control | dose: 20.0 mg/kg/injection, schedule: Q01DX001 (ip), vehicle: saline 104 % of control | dose: 40.0 mg/kg/injection, schedule: Q01DX001 (ip), vehicle: saline 95 % of control

CCOc1cc(OCC)c(OCC)cc1C=C(C#N)C#N
inactive: [7] 91 % of control | [8] 88 % of control

CCC(=O)c1cc2c(c3c1CCCC3)CCCC2
inactive: dose: 200.0 mg/kg/injection, schedule: Q01DX009 (ip), vehicle: other 90 % of control

CC1(C)CC(=O)N(c2ccccc2)N1
inactive: [9] 94 % of control | [10] 103 % of control | [11] 107 % of control

CS(=O)(=O)OCC1CC=CCC1COS(C)(=O)=O (stereo not given)
inactive: [7] 96 % of control | [12] 102 % of control | [8] 94 % of control

C/C=N/NC(=O)c1ccc[n+](C)c1
inactive: dose: 50.0 mg/kg/injection, schedule: Q01DX009 (ip), vehicle: saline 93 % of control | [1] 96 % of control | [2] 96 % of control

O=C(O)c1c(O)cc(O)cc1O
inactive: [13] 95 % of control | [14] 95 % of control

C[N+]1(C)CC2CCCCC1C2O (stereo not given)
inactive: dose: 75.0 mg/kg/injection, schedule: Q01DX001 (ip), vehicle: saline 108 % of control | dose: 150.0 mg/kg/injection, schedule: Q01DX001 (ip), vehicle: saline 104 % of control

CN(C)C(=O)C(=O)c1c[nH]c2ccccc12
inactive: [15] 118 % of control | dose: 200.0 mg/kg/injection, schedule: Q04DX002 (ip), vehicle: Klucel (hydroxypropylcellulose) (HPC) 109 % of control | [16] 109 % of control

c1ccc2c(c1)Cc1cc3ccccc3nc1-2
inactive: [13] 106 % of control | [17] 98 % of control | [14] 93 % of control | dose: 400.0 mg/kg/injection, schedule: Q01DX009 (ip), vehicle: saline with Tween-80 90 % of control | dose: 400.0 mg/kg/injection, schedule: Q04DX003 (ip), vehicle: saline with Tween-80 98 % of control

CC(=O)C1=CN(c2ccccc2)COC1C (stereo not given)
inactive: [18] 107 % of control | [7] 91 % of control | [12] 100 % of control

CC(C)NC(=O)Nc1ccc(F)cc1
inactive: dose: 100.0 mg/kg/injection, schedule: Q01DX009 (ip), vehicle: acetone 92 % of control | dose: 200.0 mg/kg/injection, schedule: Q01DX009 (ip), vehicle: acetone 101 % of control | dose: 400.0 mg/kg/injection, schedule: Q01DX009 (ip), vehicle: acetone 94 % of control

CC(C)(C)COC(=O)CCN1CC1
inactive: dose: 20.0 mg/kg/injection, schedule: Q01DX009 (ip), vehicle: Klucel (hydroxypropylcellulose) (HPC) 119 % of control | dose: 20.0 mg/kg/injection, schedule: Q04DX003 (ip), vehicle: Klucel (hydroxypropylcellulose) (HPC) 103 % of control | dose: 40.0 mg/kg/injection, schedule: Q01DX009 (ip), vehicle: Klucel (hydroxypropylcellulose) (HPC) 97 % of control | dose: 40.0 mg/kg/injection, schedule: Q04DX003 (ip), vehicle: Klucel (hydroxypropylcellulose) (HPC) 114 % of control | dose: 80.0 mg/kg/injection, schedule: Q04DX003 (ip), vehicle: Klucel (hydroxypropylcellulose) (HPC) 101 % of control | [9] 110 % of control

CCOC(CN1C(=O)c2ccccc2C1=O)OCC
inactive: dose: 50.0 mg/kg/injection, schedule: Q01DX009 (ip), vehicle: saline with Tween-80 96 % of control | dose: 100.0 mg/kg/injection, schedule: Q01DX009 (ip), vehicle: saline with Tween-80 96 % of control | [17] 93 % of control

Cc1cc(=O)n2c3c(cc(C#N)cc13)OC2
inactive: [7] 90 % of control | [15] 96 % of control | [12] 98 % of control | [8] 95 % of control | [16] 89 % of control

c1ccc(C(c2ccccc2)(c2nccs2)n2ccnc2)cc1
inactive: [9] 95 % of control | [10] 98 % of control | [11] 104 % of control

O=C1C(c2ccc(Br)cc2)=C(c2ccccc2)c2c(-c3ccccc3)cc(Br)c(-c3ccccc3)c21
inactive: [6] 90 % of control | dose: 200.0 mg/kg/injection, schedule: Q01DX001 (ip), vehicle: saline with Tween-80 90 % of control | dose: 400.0 mg/kg/injection, schedule: Q01DX001 (ip), vehicle: saline with Tween-80 87 % of control

Cc1cc2c(C)nc3ccccc3n2c1O
inactive: [18] 103 % of control | [7] 103 % of control | [12] 98 % of control

O=C1c2ccccc2-c2cc([N+](=O)[O-])c(NC(=O)C(Cl)Cl)cc21
inactive: [3] 96 % of control | [4] 107 % of control | [5] 102 % of control
